A short description of the data set: In vivo pharmacokinetics in female BALB/c mice. The settings on record: for AUC / Cmax: po, 5 mg/kg orally by gavage. The arrangement: species or system mouse. As for the experimental part:
All procedures involving animals were performed in accordance with national Home Office regulations under the Animals (Scientific Procedures) Act 1986 and within guidelines set out by the Institute's Animal Ethics Committee and the United Kingdom Coordinating Committee for Cancer Research's ad hoc Committee on the Welfare of Animals in Experimental Neoplasia. Female BALB/c mice (Charles River Laboratories) at 6 weeks of age were used for the PK analyses. The mice were dosed orally by gavage (5 mg/kg in DMSO:water 1:19 v:v; n=6) or intravenously in the tail vein (1 mg/kg in DMSO:Tween20:saline 10:1:89 v:v:v; n=6). Blood samples (˜20 μL) were taken from the tail vein from each group of mice (2 groups, 3 mice/group) alternated at 5, 15 and 30 minutes, 1, 2, 4 and 6 and 8 hours after dosing. For clarity, group 1 was bled at 5 minutes, 30 minutes, 2 hours and 6 hours; group 2 was bled at 15 minutes, 1 hour, 4 hours and 8 hours. Plasma samples were snap frozen in liquid nitrogen and then stored at −80° C. prior to analysis.
Test compound solutions (1 mg/mL in DMSO) were used to make stock Standard Curve (SC) and Quality Control (QC) solutions at appropriate concentrations. Blank plasma was spiked with stock solutions to produce a 9-point standard curve ranging from 1.5-10,000 […]; with 2 QC concentrations within this range and where the DMSO concentration was 10% of the plasma volume. Plasma PK samples, Standards and QC's were added to individual Eppendorf tubes and DMSO (10% of plasma volume) was added to the plasma PK samples. SC, QC and plasma samples were extracted with methanol (100 μL) containing internal standard. Following protein precipitation, the samples were centrifuged for 10 minutes in a refrigerated centrifuge (4° C.) at 14000 rpm. The supernatants were removed to a 96-well plate and centrifuged for a further 10 minutes in a refrigerated centrifuge (4° C.) at 3700 rpm. Samples were analysed by Liquid Chromatography Mass Spectrometry (LC-MS/MS) for the compound plasma concentrations. Non-compartmental analysis was performed on plasma concentration data using the Excel macro PK Solver 2.0.

By AUC is commonly meant concentration integrated over time. Read a low AUC as low exposure. A word on the Cmax: it is the peak of the concentration-time curve. Where the note is “5 mg/kg po vs 1 mg/kg iv”, `O=C1CCc2cc(NC(=O)c3scnc3-c3cccc(F)c3)ccc2N1` [ALDHI-1003, 4-(3-fluorophenyl)-N-(2-oxo-3,4-dihydro-1H-quinolin-6-yl)thiazole-5-carboxamide] gave an F of 100%. The clearance (mouse, plasma, iv, 1 mg/kg intravenously, read-out: Cl iv) turned out to be 22.1 mL/min/kg. Where the note is “mouse, plasma”, the area under the curve (AUC) was 13.3 µM·h and the Cmax came out at 6.1 µM.

As to `CN(CCOc1ccc2c(c1)CCC(=O)N2)C(=O)c1cccc(F)c1` [ALDHI-3008, 3-fluoro-N-methyl-N-[2-[(2-oxo-3,4-dihydro-1H-quinolin-6-yl)oxy]ethyl]benzamide], under “mouse, plasma”, the AUC was 1.5 µM·h and the Cmax came out at 1.8 µM.

(Values after patent US20240174634A1, “Aldehyde Dehydrogenase Inhibitors and Their Therapeutic Use” (priority 2020, published 2024).)
